Measurements reported in article PMC9365693 (Nature, 2022).
Where “and” joins values, the source holds several entries; their conditions need not be identical. Equal values may be shown once. Entries after “also recorded” stand apart in the source; their conditions may differ. Read-outs that look alike come from different tables or passages of the source.

Key:
[1] = test system: S. simulans; assay: MIC, S. simulans (given with permeabilization assay concentrations); type: cell-based; settings: S. simulans
[2] = 15N T1rho ssNMR relaxation of lipid II-bound teixobactin; settings: 60 kHz MAS, in membranes
Excerpt: (§1) T1rho trajectories were fit to single exponentials.

[3] = HS-AFM of teixobactin–lipid II fibrils on supported lipid bilayer
Description: (§2) The HS-AFM images were acquired in amplitude modulation tapping mode in liquid using a high-speed atomic force microscope (RIBM). Short cantilevers (approximately 7 μm) with a nominal spring constant of 0.15 N m^−1 were used (USC-F1.2-k0.15, NanoWorld). A minimal imaging force was applied by using a small set-point amplitude of 0.8 nm (for a 1 nm free amplitude). […] The lipid bilayer was obtained by incubating LUVs containing DOPC and lipid II (prepared as mentioned above) on top of a freshly cleaved mica for 20–30 min. […] Imaging was started on the lipid bilayer surface in recording buffer. […] Images were primarily processed using built-in scripts (RIBM) in Igor Pro (Wavemetrics) and analysed using ImageJ software. The images or videos were corrected minimally for tilt, drift and contrast. […] Image acquisition rate varies from 0.5 frames per second to 2 frames per seconds (see Fig. 2, Extended Data Figs. 5, 6, or legends of Supplementary Videos 1 and 2), and the line rate varies from 150 lines per second to 400 lines per second. […] Stated errors are standard deviation.

[4] = Static 31P ssNMR: membrane perturbation; settings: lipid II-doped DOPC large unilamellar vesicles
[5] = Intermolecular teixobactin–teixobactin ssNMR contacts (2D 13C13C); settings: 2D 13C13C ssNMR, 600 ms transfer, lipid II-bound
Excerpt: as §1
Solid-state NMR ^13C-^13C PARISxy spectra of the ^13C,^15N-teixobactin – Lipid II complex in membranes show several cross-peaks (in red) that cannot be intramolecular contacts because this would require magnetization transfer over more than 10 Å. Rather, these cross-peaks correspond to intermolecular contacts between different teixobactin molecules and agree with the formation of antiparallel β-sheets.

[6] = test system: Staphylococcus simulans; assay: DiSC membrane depolarization (ion leakage) assay, S. simulans; type: cell-based; settings: DiSC-2 probe, Gram-positive bacteria (Fig. 4h and Extended Data Fig. 10b,c), 20 °C, pH 7.2, 2 min before and 6 min after antibiotic; triplicates
Description: (§3) The bacterial cultures were grown overnight at 30 °C in TSB media for S. simulans and at 37 °C in LB medium for Bacillus subtilis. Secondary cultures were grown for 3 h until OD600 = 0.5 was reached. The bacterial cells were then centrifuged at 1,500g for 10 min at 4 °C and washed twice with 10 ml of buffer (10 mM Tris, 100 mM NaCl, 1 mM MgCl2 and 0.5% glucose, pH 7.2). The bacterial cells were resuspended to an OD600 = 10 in the buffer and used for the experiment. […] For the assay, 1 μl of the bacterial suspension was added to 1 ml of buffer. For the ion leakage assays, 1 μl of the DiSC-2 probe from a 1 mM stock was added to the cuvette and the fluorescence was measured between a wavelength of 650 nm and 670 nm (bandwidth of […]) for 2 min before the addition of the antibiotic and 6 min after. For the Sytox green leakage assays, 1 μl of the Sytox green probe from a 0.25 mM stock was added to the cuvette and the fluorescence was measured between a wavelength of 500 nm and 520 nm (bandwidth of […]) for 2 min before the addition of the antibiotic and 6 min after. All experiments were performed in triplicates.

[7] = Pyrene-labelled lipid II excimer fluorescence (oligomerization); settings: DOPC LUVs with 0.5 mol% pyrene-lipid II, 10 mM Tris-Cl 100 mM NaCl pH 8.0, 20 °C
[8] = test system: B. subtilis; assay: MIC, B. subtilis (given with permeabilization assay concentrations); type: cell-based, Bacillus subtilis
Description: as §3

[9] = Mobility-edited H(H)C ssNMR: membrane topology of lipid II-bound teixobactin; settings: 300 K, T2 filter 2.5 ms
Excerpt: as §1
Extended Data Fig. 8 The membrane topology of the complex. a) and b) show mobility-edited (‘T2-filtered’) ^1H(^1H)^13C ssNMR experiments[37] of ^13C,^15N-teixobactin bound to Lipid II. […] For each residue, peak areas were integrated using Topspin 4.06. Signals that were used for the integration are annotated. e) Membrane topology visualized with the ssNMR structure. Hydrophilic (in blue) and hydrophobic (brown) residues are sharply separated above and below the β-sheet, respectively. Note that the N-terminal Phe1 at the rim of the β-sheet has higher water accessibility, potentially because of fraying and mobility effects. f) Normalized contacts to water and lipid-tails, back-calculated over the MD simulation based on our ssNMR structure. g) Membrane topology using a different structure of the calculated ssNMR ensemble. As shown in Extended Data Fig. 9a, the despi-cycle is plastic and can point up towards the water phase, bringing End10 well-above the membrane-plane. Source data

[10] = for interaction with lipid II moieties (in words): ssNMR, DOPC liposomes with 4 mol% lysine-lipid II, pH 7.2
Description: Multi-lamellar vesicles of DOPC doped with 4 mol% lysine-lipid II in buffer (40 mM Na2PO4 and 25 mM NaCl, pH 7.2) were collected by centrifugation (60,000g) and loaded into ssNMR rotors. […] For 1.3-mm rotors, samples contained 200 nmol of antibiotic for unlabelled lipid II.
^1H-detected ssNMR experiments were performed at 60 kHz magic angle spinning (MAS) using magnetic fields of 700 and 950 MHz (^1H frequency). […] T1rho trajectories were fit to single exponentials. 2D CC experiments were acquired with PARISxy[33],[53] recoupling (m = 1) at 950 MHz magnetic field and 18 kHz MAS. A 2D CαN experiment was acquired at 700 MHz, 12 kHz MAS and 5 ms N to C cross-polarization transfer time. […] The scalar TOBSY[35] experiment was acquired at 700 MHz using 8 kHz MAS with 6 ms CC mixing time. The mobility edited H(H)C experiment[25] was measured at 700 MHz with 16.5 kHz MAS at a temperature of 300 K using a T2 relaxation filter of 2.5 ms. 1D MAS ^31P experiments were acquired at 500 MHz magnetic field and 12 kHz MAS. 2D HP experiments were acquired at 800 MHz and 60 kHz MAS using 1 and 2 ms ^1H to ^31P cross-polarization contact time. Static ^31P ssNMR experiments were acquired at 500 MHz magnetic field without sample spinning.

[11] = HS-AFM control experiments (membrane height; bilayers without lipid II); set-up: membrane height: unit not given here; settings: for membrane height: source data Ext. Data Fig. 6, DOPC + 1% lipid II, after 30 mins incubation with 800 nM
Description: as §2
Extended Data Fig. 6 HS-AFM control experiments. […] Source data

[12] = Scalar TOBSY ssNMR: mobility of the lipid II pentapeptide in the complex; type: binding; settings: 8 kHz MAS, 300 K, compared with R4L10-teixobactin
Excerpt: as §1
Interfacial contacts are labelled in green. Lipid II pentapeptide signals are marked with an asterisk, e.g., A1*αβ. b) Zoom into the spectrum acquired with 300 ms magnetization transfer. […] The spectrum is based on a scalar 2D ^13C^13C TOBSY[35] ssNMR experiment with the complex formed by ^13C,^15N-teixobactin and ^13C,^15N-Lipid II in liposomes acquired at 950 MHz, 8 kHz MAS, and 300 K temperature. Teixobactin and the Lipid II sugars are not visible in the spectrum (cyan). Conversely, the last three residues (Lys3-Ala4-Ala5) of the Lipid II pentapeptide give scalar signals indicating high mobility and no involvement in complex formation. […] Likewise, the K3αγ signal of the third pentapeptide residue was only visible for R4L10-teixobactin. […] All experiments were performed in triplicates. All the parameter values are shown as mean +/− SD.

[13] = test system: Staphylococcus simulans; assay: Sytox green membrane damage assay, S. simulans; type: cell-based
Description: as §3

For teixobactin, the “concentration stated as 1× MIC” value [1] was 0.5 µM, the “overall dynamics in the complex (in words)” value [2] was “The overall dynamics of the molecule is very slow” and the “depth of fibrillar sheets below the membrane surface (membrane thinning)” value ([3]; 50 min after 800 nM teixobactin) was “approximately 0.5 nm”. The “height of fibrils on the membrane surface” value ([3]; DOPC bilayer with lipid II, 10 mM Tris-Cl 100 mM NaCl pH 8.0, error is standard deviation) was 0.8 ± 0.1 nm, the “peak-to-peak distance between fibrils in sheets” value ([3]; after the fibrils have descended into the surface) was ~ 8 nm and the “formation of fibrils (in words)” value ([3]; lipid II-doped bilayer) was “Fibrils were solely observed in the presence of both teixobactin and lipid II; also recorded: fibrils solely form in the presence of both teixobactin and Lipid II”. For the same substance, the “membrane perturbation by static 31P ssNMR (in words)” value [4] was “incubation with teixobactin markedly changed the signal”, the “antiparallel β-sheet formation (in words)” value [5] was “strongly supports that natural teixobactin also forms antiparallel β-sheets” and the “decrease in membrane potential / depolarization (in words)” value [6] was “sharp decrease in the membrane potential”. For the same substance, the “oligomerization by pyrene-tagged lipid II (in words)” value [7] was “with the increase in teixobactin concentration there is a relative decrease in the monomer signal followed by a respective increase in the excimer signal; also recorded: oligomers form immediately after the addition of teixobactin”, the “concentration stated as 10× MIC” value [8] was 0.2 µM and the “membrane topology (in words)” value [9] was “localizes at the water–membrane interface with the hydrophobic residues Ile2, Ile5 and Ile6 partitioned in the bilayer”. For the same substance, the “number of interfacial End10–MurNAc ssNMR contacts” value ([10]; 2D 13C13C PARISxy, 13C,15N-teixobactin and 13C,15N-lipid II in DOPC liposomes) was 11, the “interaction with lipid II moieties (in words)” value ([10]; listed as Teixobactin) was “did not bind to the pentapeptide of lipid II” and the “interaction with lipid II moieties (in words)” value ([10]; listed as natural teixobactin) was “tight and specific interactions”. The “HS-AFM control result (in words)” value ([11]; membrane height at positions without fibrils, 30 min after teixobactin) was “membrane height at positions without fibrils remains unaltered”, the membrane height ([11]; individual measurement, one line each) was 4.81 and 4.99 and 5.22 and 4.65 and 4.79 and 5.05 and 5.1 and 4.77 and 4.67 and 5.01 and 4.5 and 4.97 and 4.95 and 5 and 4.87 and 4.68 and 4.96 and 4.63 and 4.88 and 4.89 and 4.9 and 5.12 and 4.8 and the membrane height ([11]; mean) was 4.873. For the same substance, the “rigidity of lipid II pentapeptide in the complex (in words)” value [12] was “the pentapeptide is more rigid in the complex with teixobactin than with R4L10-teixobactin”, the “membrane damage, Sytox green (in words)” value ([13]; Sytox green, Gram-positive bacteria, 20 °C, pH 7.2, 2 min before and 6 min after antibiotic, triplicates) was “Although less pronounced than for nisin, teixobactin also showed clear effects with Sytox green” and the “time of membrane defects in intact bacteria” value ([13]; intact bacteria, DiSC / Sytox green assays) was no more than 10 min.
